Test results reported in patent US5591740A, “Use of debromohymenialdisine for treating osteoarthritis” (OsteoArthritis Sciences, Incorporated, priority 1995, dated 1997).

How the values were obtained:
[1] = test system: chondrocytes, interleukin-1 induced proteoglycan degradation; assay: Chondrocyte cell culture matrix breakdown assay (IL-1 induced 35S proteoglycan release); type: cell-based, calf; settings: for IC50: Bos taurus, chondrocyte matrix breakdown assay, 1 ng/ml rhIL-1α, 22-24 hours, read-out: IC50, inhibition of proteoglycan degradation; for dose response curve (FIG. 1): percent inhibition over a range of concentrations
Method: A cell culture assay was used to-measure the ability of the test compounds to slow the degradation of the extracellular matrix by a metalloproteinase. This assay measured the amount ^35 S released from chondrocytes grown in a media with ^35 S labeled sodium sulfate. The cell culture assay was carried out as follows:
Two or three 1 to 3 week old calf joints were obtained from an abattoir. The proximal end of the shank was about 4-5" long to facilitate immobilization in the holder. The joint was kept cool and transported on ice. The exterior of the intact joints was washed well with a suitable anti-microbial soap, rinsed clean with warm water, rinsed in betadine and then finally rinsed with 70% ethanol. Up to this point all steps were done in a manner to ensure that the joint was kept as clean as possible. All subsequent steps were performed in a sterile field (i.e., in a Edgeguard laminar flow tissue culture hood). The joint was immobilized and the synovial fluid was aspirated with a needle and syringe. The joint was then cut open to expose the articular cartilage using a #21 scalpel. Using locking hemostats, forceps and a #15 scalpel, the cartilage was excised in full thickness pieces. Care was taken not to cut too deep into the subchondral bone to prevent bleeding. The cartilage pieces were placed into a 50 mL centrifuge tube containing 25 mL of Delbecco's phosphate buffered saline (D-PBS) supplemented with 1% antibiotic solution (penicillin, streptomycin and fungizone; GIBCO/BRL). The slices from each joint were then placed into separate 50 mL centrifuge tubes. The D-PBS was decanted and replaced with 25 mL of fresh D-PBS supplemented with antibiotics and subsequently agitated gently.
The cartilage pieces were transferred to a fresh 50 mL centrifuge tube and rinsed once more with 25 mL of D-PBS minus antibiotics. An enzymatic digestion solution containing 1 mg/mL of hyaluronidase in serum-free 1:1 DMEM/Ham's F-12 (DMEM/F12) was prepared. This solution was filter sterilized with […] Milex--GV filter and kept on ice until ready to use. The cartilage pieces were digested with approximately 5 mL of hyaluronidase solution per joint for 2×15 minutes at 37° C. in the 50 mL centrifuge tube with gentle agitation at the 15 minute mark. This procedure removed residual hyaluronic acid from the surface of the chips. The enzymatic digestion solution was then aspirated and the cartilage pieces were rinsed with 25 mL of D-PBS.
A second enzymatic digestion solution containing 2.5 mg trypsin and 2 mg collagenase P per mL serum-free DMEM/F12 was prepared. This solution was also filter sterilized with a […] Millex--GV filter and kept on ice until ready to use. The cartilage pieces were digested with approximately 5 mL of trypsin: collagenase solution per joint for 2×15 minutes at 37° C. in the 50 mL centrifuge tube with gentle agitation at the 15 minute mark. This procedure removed the synovial fibroblasts and any adherent connective tissue from the surface of the chips. The enzymatic digestion solution was then carefully removed and saved and the cartilage pieces were rinsed with 25 mL of D-PBS.
A third enzymatic solution containing 2 mgs of collagenase P (BMB) per mL serum-free DMEM/F12 was prepared. This solution was filter sterilized with a […] Millex--GV filter and kept on ice until ready to use. The pre-digested cartilage pieces were finally digested with approximately 20 mL of enzymatic digestion solution per joint for 5-6 hours at 37° C. in a Bellco stirring digestion flask, at which point the cartilage was fully digested away.
The enzymes in the synovial fibroblast and chondrocyte digest were neutralized by addition of an equal volume of DMEM/F12 supplemented with 5% fetal bovine serum. Fibroblasts were plated in DMEM at a cellular density of 6.6×10^3 cells per cm^2. […]

[2] = test system: bovine cartilage explants, interleukin-1 stimulated proteoglycan degradation; assay: Bovine articular cartilage explant assay (IL-1 induced 35S-GAG release); type: cell-based, bovine (1 to 3 week old calf); settings: for IC50: Bos taurus, bovine cartilage explants, rhIL-1α 5 ng/mL, 3-4 days, read-out: IC50, inhibition of interleukin-1 stimulated proteoglycan degradation; for dose response curve (FIG. 2): percent inhibition over a range of concentrations
Text: A tissue culture assay was used to measure the ability of the compounds of the present invention to slow the degradation of the extracellular matrix by metalloproteinases. This assay measured the amount of ^35 S-glycosaminoglycan (^35 S-GAG) released from labeled bovine cartilage explants.
Knee joints from a 1 to 3 week old calf were obtained immediately after sacrifice from the Abattoir and then transported on ice. The intact joints were washed well with tap water and soaked in 50% (v/v) Povidine iodine solution, obtained from Burre National, Inc., Baltimore, Md. All subsequent steps were performed in a laminar flow tissue culture hood using standard sterile technique. The joint was immobilized in a shank holder and the joint capsule was cut open to expose the articular cartilage. Cartilage explant plugs, approximately 15 mg wet weight, were removed from the flat articulating surfaces in the lower-most region of the knee joint using a sterile steel cork-borer and collected in a 250 mL roller bottle containing about 100 mL fresh Delbecco's minimum essential medium (DMEM), obtained from Gibco BRC, Life Technologies, Gaithersburg, Md., containing 4.5 g/l (D)-glucose and (L)-glutamine, without sodium pyruvate. The fresh media also contained enough Hepes buffer and sodium bicarbonate such that the pH was about 7.4. The media was then further supplemented just before use with 100 units Penicillin, 100 μg Streptomycin, and 50 μg (L)-ascorbic acid per mL of medium.
Once collected, the explant plugs were washed four times with 50 mL fresh DMEM. The plugs were then placed in the incubator for a minimum of 1 hour to equilibrate, before proceeding to make disks from the articulating surface of each plug. A 1 mm thick disk was sliced from individual plugs from the end that was the articulating surface of the joint. The plug was held steady in the sterile template (4 mm diameter ×1.5 mm deep) using sterile forceps. A scalpel blade was used to carefully slice off the disk. Only the superficial articulating surface responded well in culture.
Individual disks obtained were transferred to a tissue culture flask containing about 100 mL fresh media. The flask containing the disks was placed in an incubator at 37° C. (with 5% CO2, 95% air) and allowed to equilibrate overnight and at least one additional day before labeling. When ready to label, the old media was replaced with 50 mL fresh media containing about 500 μCi ^35 S-Sodium Sulfate. The plugs were labeled in bulk for about 48 hours. […]
The TC plates were then placed in the incubator and cultured for 3-4 days (initial incubation with rhIL-1α alpha takes at least 3 days to stimulate endogenous metalloproteinases). A 50 μL aliquot of media from each TC plate was saved and counted. […]

[3] = test system: osteoarthritis in Hartley guinea pigs following surgical induction of joint instability; assay: Slowing the development of osteoarthritis in the Hartley guinea pig model (surgically induced joint instability, Mankin scoring); type: in vivo, male Hartley guinea pigs; parameters: Structure (Mankin criteria), mean / Cells (Mankin criteria), mean / Safranin O (Mankin criteria), mean / mean Mankin score: scale not given here; settings: for Cells (Mankin criteria), mean: untreated 1.6; for Safranin O (Mankin criteria), mean: untreated 2.3; for Structure (Mankin criteria), mean: untreated 4.6; for mean Mankin score: untreated 10.3, placebo 10.0
Method: Thirty five male Hartley guinea pigs 40 days old, were purchased from Charles River Laboratories. Each group consisted of 5 animals that were euthanized at 1, 2, 3, 4, 5, 6 and 8 months post-surgery. Ketamine 40 mg/kg, Xylazine 5 mg/kg and Fentanyl 0.1 mg/kg sc were used for anesthesia. Naloxone hydrochloride was given at 0.1 mg/kg following surgery. For radiography, animals were sedated with Xylazine 10 mg/kg sc and superficially anesthetized with Ketamine 20 mg/kg sc.
Surgery was performed under direct visualization using a dissecting microscope at 7.5 fold magnification. A medial longitudinal parapatellar incision was followed by division of the capsule and synovial layers. A partial medical menisectomy was followed by transection of the anterior cruciate ligament. Confirmation of the ligament transection was obtained by a positive anterior drawer sign. The capsule was continuously sutured with 5-0 VICRYL™ and the skin was closed with staples.
After the animals were sacrificed, joints were prepared for histological examination by standard techniques. Joints were fixed for 14 days in 10% formalin. Knees were then decalcified in 20% Formic acid in PBS, pH 7.2 for 24 hours. Sections cut at 5μ were stained with Safranin O, Fast Green and Hematoxylin. Radiographic evaluation was performed with antero-posterior and lateral views. A dental X-Ray unit and DF-50 film were used. Histopathological scoring was performed by two blinded, independent observers using the Mankin criteria (Mankin, H. J., "Biochemical and Metabolic Aspects of Osteoarthritis," Orthopedic Clinics of North America, 2:19-30 (1971). This evaluation system grades the structural defects, cellular changes, loss of proteoglycan as reflected by Safranin 0, and disruption of an antatomic landmark reflecting the transition to calcified cartilage. The Mankin scoring criteria are listed below:
Surgery was performed on twenty-four male Hartley guinea pigs during which the joint instability was induced according to the procedure described in Example 4.
The animals were divided into four groups of six. Beginning two weeks following surgery, each animal in the first two groups was given weekly intraarticular injections into the surgically treated joints of 0.3 mg (6 mg/ml) or 1.5 mg of Z-debromohymenialdisine (30 mg/ml) in a vehicle containing carboxymethylcellulose (2 mg/ml saline) and polysorbate 80 (0.5 mg/ml saline). Total volume of the injection was 50 μl. Group III animals were given weekly intraarticular injections of a placebo, while Group IV animals were left untreated. The treatments were continued for seven weeks.
At the termination of the system, the animals were euthanized and […] evaluation of the knees was performed as described in Example 5 using the Mankin criteria. The results of the histological evaluation at seven weeks post surgery are depicted in FIG. 4.

[4] = 0.3 or 1.5 mg/week intraarticular

Row | SMILES | IC50 [1] [µM] | IC50 [2] [µM] | dose response curve (FIG. 2) [2] | dose response curve (FIG. 1) [1] | Cells (Mankin criteria), mean ([3]; 0.3 mg weekly intraarticular) | Safranin O (Mankin criteria), mean ([3]; 0.3 mg weekly intraarticular) | Structure (Mankin criteria), mean ([3]; 0.3 mg weekly intraarticular) | mean Mankin score ([3]; 0.3 mg/week intraarticular) | Cells (Mankin criteria), mean ([3]; 1.5 mg weekly intraarticular) | Safranin O (Mankin criteria), mean ([3]; 1.5 mg weekly intraarticular) | Structure (Mankin criteria), mean ([3]; 1.5 mg weekly intraarticular) | mean Mankin score ([3]; 1.5 mg/week intraarticular) | disease progression, result in words [3, 4] | structural and biochemical changes in developing osteoarthritis (loss of Safranin O staining), result in words [3, 4] | joint degeneration and cartilage degradation, result in words ([3]; animal model, weekly intraarticular)
1 | O=C1NC(=O)/C(=C2/CCNC(=O)c3[nH]c(Br)cc32)N1 [Axinohydantoin (3), axinohydantoin] | > 50 |  |  |  |  |  |  |  |  |  |  |  |  |  | 
2 | NC1=N/C(=C2\CCNC(=O)c3[nH]ccc32)C(=O)N1 [E-debromohymenialdisine] | 6 | 50 | broad, shallow dose response curve | broad, shallow dose response curve |  |  |  |  |  |  |  |  |  |  | 
3 | NC1=NC(=O)/C(=C2\CCNC(=O)c3[nH]c(Br)cc32)N1 [Hymenialdisine (2), hymenialdisine] | > 50 |  |  |  |  |  |  |  |  |  |  |  |  |  | 
4 | NC1=N/C(=C2/CCNC(=O)c3[nH]ccc32)C(=O)N1 [Z-debromohymenialdisine] | 0.8 | 2 | broad, shallow dose response curve | broad, shallow dose response curve | 1.2 | 1.5 | 3.5 | 6.7 | 1.5 | 1.1 | 1.6 | 5.5 | significant reduction in disease progression | able to diminish the structural and biochemical changes | effective in slowing joint degeneration and cartilage degradation
